The text below walks through data of EP4306106A1, “NITRO-CONTAINING COMPOUNDS, COMPOSITIONS AND USES THEREOF” (Universidade de Aveiro, priority 2022, dated 2024).

pIC50: −log10 of the molar value.

The first assay concerns the target T1, recombinant protein HDAC8 (Homo sapiens, UniProt Q9BY41).
T1 construct: purchased Enzo Life Sciences
T1 sequence (Q9BY41 1-377): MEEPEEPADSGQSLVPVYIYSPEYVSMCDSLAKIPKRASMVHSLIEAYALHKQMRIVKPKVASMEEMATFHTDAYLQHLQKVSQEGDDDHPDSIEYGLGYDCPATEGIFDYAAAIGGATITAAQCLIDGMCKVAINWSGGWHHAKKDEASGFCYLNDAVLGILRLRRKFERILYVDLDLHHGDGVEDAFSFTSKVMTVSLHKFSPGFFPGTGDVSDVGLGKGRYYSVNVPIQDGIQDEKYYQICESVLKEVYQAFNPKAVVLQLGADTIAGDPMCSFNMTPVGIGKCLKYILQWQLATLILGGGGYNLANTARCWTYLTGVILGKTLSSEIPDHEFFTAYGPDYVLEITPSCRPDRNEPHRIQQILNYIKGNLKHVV
The assay can be described thus: In vitro HDAC8 isoenzyme activity (Fluor-de-Lys-HDAC8 substrate). In kind it is biochemical. The following applies: 1 U/well, substrate 50 µM. As for the experimental part: In vitro HDAC8 isoenzyme activity was tested using 1 U/well of recombinant protein HDAC8 (Enzo® Life Sciences) incubated with the Fluor-de-Lys®-HDAC8 substrate (50 µM) for 20 min at room temperature. Reactions were stopped by adding a developer II solution (Fluor-de-Lys® developer II concentrate, Enzo® Life Sciences) containing 2 µM of TSA. After 45 min of incubation at room temperature, fluorescence is measured as for total HDAC activity.
One may read the pIC50 as the negative decadic logarithm of the IC50, by convention in mol/L. For the compound `Nc1cc(C(=O)c2cc([N+](=O)[O-])ccc2O)cnc1-c1ccccc1` [drawing 39], the pIC50 was 4.13.

On to `O=C(c1cc(C(=O)c2cc([N+](=O)[O-])ccc2O)cc([N+](=O)[O-])c1)c1cc([N+](=O)[O-])ccc1O` [Compound 5, (5-Nitro-1,3-phenylene)bis[(2-hydroxy-5-nitrophenyl)methanone]], for which the pIC50 is 4.57.

For the compound `N#Cc1ccc(-c2ncc(C(=O)c3cc([N+](=O)[O-])ccc3O)cc2N)cc1` [drawing 40], the pIC50 was 4.24.

In a further assay the test system is total HDAC. The assay can be described thus: In vitro total HDAC activity (Fluor-de-Lys, HeLa nuclear extract). It counts as biochemical, human. The following applies: screening at 100 µM, result in words. As for the experimental part:
In vitro total HDAC activity was measured according to manufacturer's instructions using a nuclear extract from HeLa cells (human cervical cancer cell line) as HDAC source incubated with the Fluor-de-Lys® substrate (50 µM) for 20 min at room temperature (Fluor-de-Lys®, Enzo® Life Sciences, Antwerpen, Belgium). Reaction was stopped by addition of a developing solution (Fluor-de-Lys® developer I concentrate, Enzo® Life Sciences) containing trichostatin A (TSA) (2 µM). After 15 min of incubation at room temperature, fluorescence signal was measured on a fluorescence microplate reader (SYNERGY HTX multi-mode reader) with an exciting wavelength of 360 nm and emission wavelength of 460 nm. All dilutions of tested compounds were prepared in dimethylsulfoxide (DMSO).
Representative examples of 3-aminopyridines and 3,5-disubstituted nitrobenzenes were screened for their total HDAC inhibition capacity at 100 µM (Table 2). It was observed that only nitro-containing examples were active in the total HDAC screening assay (compounds 1, 3, 9 and 5), which moved forward to the specific HDAC8 isoenzyme assay (Table 3).
Turning to `Nc1cc(C(=O)c2ccccc2O)cnc1-c1ccc([N+](=O)[O-])cc1` [Compound 3, [5-Amino-6-(4-nitrophenyl)pyridin-3-yl](2-hydroxyphenyl)methanone], the “total HDAC inhibition capacity” value is on record as “active”.

With `O=C(c1cc(C(=O)c2cc([N+](=O)[O-])ccc2O)cc([N+](=O)[O-])c1)c1cc([N+](=O)[O-])ccc1O` [Compound 5, (5-Nitro-1,3-phenylene)bis[(2-hydroxy-5-nitrophenyl)methanone]], the “total HDAC inhibition capacity” value is reported as “active”.

For `N#Cc1ccc(-c2ncc(C(=O)c3cc([N+](=O)[O-])ccc3O)cc2N)cc1` [Compound 9, 4-[3-amino-5-(2-hydroxy-5-nitrobenzoyl)pyridin-2-yl]benzonitrile], the “total HDAC inhibition capacity” value is on record as “active”.

Turning to `Nc1cc(C(=O)c2cc([N+](=O)[O-])ccc2O)cnc1-c1ccccc1` [Compound 1, (5-Amino-6-phenylpyridin-3-yl)(2-hydroxy-5-nitrophenyl)methanone], the “total HDAC inhibition capacity” value is reported as “active”.

The same assay, now with this note: total HDAC activity, nuclear extract from HeLa cells, compound at 100 µM.
Broadly, the %Inhibition is the change of the read-out against control, counted positive when it falls. With `O=C(c1cc(C(=O)c2cc([N+](=O)[O-])ccc2O)cc([N+](=O)[O-])c1)c1cc([N+](=O)[O-])ccc1O` [drawing 37], the “%Inhibition at 100 µM” value was determined as 73%.

In the case of `Cc1cc(C(=O)c2cnc(-c3ccccc3)c(N)c2)c(O)c([N+](=O)[O-])c1`, the “%Inhibition at 100 µM” value is on record as 67%.

For `Cc1cc(C(=O)c2cc(C(=O)c3cc(C)cc([N+](=O)[O-])c3O)cc([N+](=O)[O-])c2)c(O)c([N+](=O)[O-])c1`, the “%Inhibition at 100 µM” value came out at 65%.

Take `Cc1ccc(O)c(C(=O)c2cc(C(=O)c3cc(C)ccc3O)cc([N+](=O)[O-])c2)c1`: the “%Inhibition at 100 µM” value is “Inactive”.

Take `O=C(c1cc(C(=O)c2cc(Cl)ccc2O)cc([N+](=O)[O-])c1)c1cc(Cl)ccc1O`: the “%Inhibition at 100 µM” value is reported as “Inactive”.

Take `N#Cc1ccc(-c2ncc(C(=O)c3cc([N+](=O)[O-])ccc3O)cc2N)cc1` [drawing 29]: the “%Inhibition at 100 µM” value is given as 82%.

As for `Nc1cc(C(=O)c2ccccc2O)cnc1-c1ccccc1`, the “%Inhibition at 100 µM” value is on record as “Inactive”.

For the compound `COc1cccc(O)c1C(=O)c1cc(C(=O)c2c(O)cccc2OC)cc([N+](=O)[O-])c1`, the “%Inhibition at 100 µM” value is recorded as “Inactive”.

As for `Nc1cc(C(=O)c2cc([N+](=O)[O-])ccc2O)cnc1-c1ccccc1` [drawing 28], the “%Inhibition at 100 µM” value is listed as 78%.

Turning to `O=C(c1cc(C(=O)c2ccccc2O)cc([N+](=O)[O-])c1)c1ccccc1O`, the “%Inhibition at 100 µM” value was “Inactive”.

Turning to `Nc1cc(C(=O)c2ccccc2O)cnc1-c1ccc([N+](=O)[O-])cc1` [drawing 30], the “%Inhibition at 100 µM” value came out at 67%.

As to `Nc1cc(C(=O)c2ccccc2O)cnc1-c1ccc2ccccc2c1`, the “%Inhibition at 100 µM” value is recorded as “Inactive”.

A further assay deals with total HDAC. The description is as above. It counts as biochemical, human. The following applies: nuclear extract from HeLa cells, 1µM (footnote a).
For the compound `CC(/C=C/C(=O)NO)=C\[C@@H](C)C(=O)c1ccc(N(C)C)cc1` [Trichostatin A], the “%Inhibition of 1µM” value was 90^a %.
